Converted amounts (≈) assume the structure as drawn.
Key:
[1] = tested on: Blood cancer cells RS4; 11; test: CellTiter Glo test: growth inhibition of cells; type: cell-based; details: Homo sapiens, 11 cells, 72 h, cell viability
Solubility test = type: physicochemical; details: aqueous buffer, kinetic from dmso stock, phosphate buffer pH 7.4, 25° C.
Procedure: Test Example 2: Solubility Test
A test substance and a control drug progesterone were prepared with DMSO into a 10 mM stock solution
30 μL 10 mM stock solution prepared from the test substance and the control drug progesterone was taken and added into bottles in corresponding positions of 96-well sample plate in a specified order. Then, 970 μL of phosphate buffer with pH 7.4 was added into corresponding bottles of the sample plate. The experiments were two parallel experiments. A stirring rod was added into each bottle, and each bottle was covered with a polytetrafluoroethylene/silicon organic resin bottle plug. Then, a sample tray was placed in Eppendorf Thermomixer Comfort and vibrated at a rotating speed of 1100/min at 25° C. for 2 h. 2 h later, the bottle plug was removed, the stirring rod was taken away with a large magnet, and then samples were transferred to a filter plate from the sample plate. A vacuum pump generated a negative pressure to filter the samples. […]
A sample injection plate was placed in a sample injection tray of an automatic sample injection, and samples were evaluated through liquid analysis. […]
Analysis and quantification of the filter of the samples were completed by qualitatively and quantitatively analyzing the peak of a standard product with known concentration through liquid chromatography-mass spectrometry. […]

MDM2 = MDM2 (Homo sapiens, UniProt Q00987); test: HTRF test: inhibition of MDM2-p53 protein binding
Chain of MDM2 (Q00987 2-138): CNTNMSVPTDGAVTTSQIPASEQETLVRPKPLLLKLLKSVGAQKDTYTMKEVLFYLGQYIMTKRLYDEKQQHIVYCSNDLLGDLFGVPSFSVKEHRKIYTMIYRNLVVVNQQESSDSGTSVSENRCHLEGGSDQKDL

MDMX = molecular target: T1, MDMX (Homo sapiens, UniProt O15151); test: HTRF test: inhibition of MDMX-p53 protein binding
T1 sequence (O15151 2-134): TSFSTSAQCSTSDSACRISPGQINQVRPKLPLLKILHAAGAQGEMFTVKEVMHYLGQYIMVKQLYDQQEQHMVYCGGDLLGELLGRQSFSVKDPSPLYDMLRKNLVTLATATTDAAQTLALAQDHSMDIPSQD

SMILES	IC50 [1] [nM]	solubility at 2 h (Solubility test) [µg/mL]	IC50 (MDM2) [nM]	IC50 (MDMX) [nM]
N#Cc1ccc(C(CO)N2C(=O)N/C(=C\c3c[nH]c4cc(Cl)ccc34)C2=O)cc1 (stereo not shown) [Compound 38, (Z)-4-(1-(4-((6-chloro-1H-indol-3-yl)methylene)-2,5-dioxoimidazolidin-1-yl)-2-hydroxyethyl)benzonitrile]	≤ 1000	0.075 (≈ 0.184 µM)	< 10	10 to 100
N#Cc1ccc(C(COP(=O)(O)O)N2C(=O)N/C(=C\c3c[nH]c4cc(Cl)ccc34)C2=O)cc1 (stereo not shown) [Compound 40, (Z)-2-(4-((6-chloro-1H-indol-3-yl)methylene)-2,5-dioxoimidazolidin-1-yl)-2-(4-cyanophenyl)ethyl dihydrophosphate]	–	146 (≈ 299 µM)	10 to 100	> 100
O=C1N/C(=C\c2c[nH]c3c(F)c(Cl)ccc23)C(=O)N1C(CO)c1ccc(Cl)cc1F (stereo not shown) [Compound 99, (Z)-3-(1-(4-chloro-2-fluorophenyl)-2-hydroxyethyl)-5-((6-chloro-7-fluoro-1H-indol-3-yl)methylene)imidazolidine-2,4-dione]	≤ 1000	–	10 to 100	10 to 100
O=C1N/C(=C\c2c[nH]c3c(F)c(Cl)ccc23)C(=O)N1Cc1cc(F)c(Cl)cc1F [Compound 100, (Z)-3-(4-chloro-2,5-difluorobenzyl)-5-((6-chloro-7-fluoro-1H-indol-3-yl)methylene)imidazolidine-2,4-dione]	≤ 1000	–	< 10	10 to 100
O=C1N/C(=C\c2c[nH]c3c(F)c(Cl)ccc23)C(=O)N1C(CO)c1cc(F)c(Cl)cc1F (stereo not shown) [Compound 101, (Z)-3-(1-(4-chloro-2,5-difluorophenyl)-2-hydroxyethyl)-5-((6-chloro-7-fluoro-1H-indol-3-yl)methylene)imidazolidine-2,4-dione]	1000 to 10000	–	10 to 100	> 100
O=C1N/C(=C\c2c[nH]c3c(F)c(Cl)ccc23)C(=O)N1Cc1c(F)cc(Cl)cc1F [Compound 102, (Z)-3-(4-chloro-2,6-difluorobenzyl)-5-((6-chloro-7-fluoro-1H-indol-3-yl)methylene)imidazolidine-2,4-dione]	≤ 1000	–	10 to 100	10 to 100
O=C1N/C(=C\c2c[nH]c3c(F)c(Cl)ccc23)C(=O)N1C(CO)c1c(F)cc(Cl)cc1F (stereo not shown) [Compound 103, (Z)-3-(1-(4-chloro-2,6-difluorophenyl)-2-hydroxyethyl)-5-((6-chloro-7-fluoro-1H-indol-3-yl)methylene)imidazolidine-2,4-dione]	1000 to 10000	–	< 10	> 100

The next lines start with the values.

IC50 [1] [nM]	solubility at 2 h (Solubility test) [µg/mL]	IC50 (MDM2) [nM]	IC50 (MDMX) [nM]	SMILES
≤ 1000	–	10 to 100	10 to 100	O=C1N/C(=C\c2c[nH]c3c(F)c(Cl)ccc23)C(=O)N1Cc1ccc(Cl)c(F)c1F [Compound 104, (Z)-3-(4-chloro-2,3-difluorobenzyl)-5-((6-chloro-7-fluoro-1H-indol-3-yl)methylene)imidazolidine-2,4-dione]
≤ 1000	–	10 to 100	10 to 100	O=C1N/C(=C\c2c[nH]c3c(F)c(Cl)ccc23)C(=O)N1C(CO)c1ccc(Cl)c(F)c1F (stereo not shown) [Compound 105, (Z)-3-(1-(4-chloro-2,3-difluorophenyl)-2-hydroxyethyl)-5-((6-chloro-7-fluoro-1H-indol-3-yl)methylene)imidazolidine-2,4-dione]
≤ 1000	–	10 to 100	10 to 100	O=C1N/C(=C\c2c[nH]c3c(F)c(Cl)ccc23)C(=O)N1Cc1cc(F)c(Cl)c(F)c1 [Compound 106, (Z)-3-(4-chloro-3,5-difluorobenzyl)-5-((6-chloro-7-fluoro-1H-indol-3-yl)methylene)imidazolidine-2,4-dione]
≤ 1000	–	10 to 100	10 to 100	O=C1N/C(=C\c2c[nH]c3c(F)c(Cl)ccc23)C(=O)N1C(CO)c1cc(F)c(Cl)c(F)c1 (stereo not shown) [Compound 107, (Z)-3-(1-(4-chloro-3,5-difluorophenyl)-2-hydroxyethyl)-5-((6-chloro-7-fluoro-1H-indol-3-yl)methylene)imidazolidine-2,4-dione]

Reference: US20250223307A1, “MDM2/MDMX DOUBLE-TARGET INHIBITOR COMPOUND, PRODRUG, PHARMACEUTICAL COMPOSITION, AND PREPARATION METHOD THEREFOR AND USE THEREOF” (GLOBAL HEALTH DRUG DISCOVERY INSTITUTE, priority 2022, published 2025)
